Source: US4399136A, “Pyrazolopyridazine antihypertensives” (Hoffmann-La Roche Inc., priority 1980, dated 1983)

molecular target: T1, angiotensin converting enzyme, extracted from rabbit lung (Oryctolagus cuniculus, UniProt P12822); experiment: in vitro inhibition of angiotensin converting enzyme (cleavage of hippuryl-histidyl-leucine); assay type: biochemical; details: hippuryl-histidyl-leucine 2 mM; rabbit lung ACE; pH 8.3; 25 minutes at 37° C.
T1 construct: extracted from rabbit lung; from tissue; host or cells: rabbit lung
T1 sequence (P12822 34-1310): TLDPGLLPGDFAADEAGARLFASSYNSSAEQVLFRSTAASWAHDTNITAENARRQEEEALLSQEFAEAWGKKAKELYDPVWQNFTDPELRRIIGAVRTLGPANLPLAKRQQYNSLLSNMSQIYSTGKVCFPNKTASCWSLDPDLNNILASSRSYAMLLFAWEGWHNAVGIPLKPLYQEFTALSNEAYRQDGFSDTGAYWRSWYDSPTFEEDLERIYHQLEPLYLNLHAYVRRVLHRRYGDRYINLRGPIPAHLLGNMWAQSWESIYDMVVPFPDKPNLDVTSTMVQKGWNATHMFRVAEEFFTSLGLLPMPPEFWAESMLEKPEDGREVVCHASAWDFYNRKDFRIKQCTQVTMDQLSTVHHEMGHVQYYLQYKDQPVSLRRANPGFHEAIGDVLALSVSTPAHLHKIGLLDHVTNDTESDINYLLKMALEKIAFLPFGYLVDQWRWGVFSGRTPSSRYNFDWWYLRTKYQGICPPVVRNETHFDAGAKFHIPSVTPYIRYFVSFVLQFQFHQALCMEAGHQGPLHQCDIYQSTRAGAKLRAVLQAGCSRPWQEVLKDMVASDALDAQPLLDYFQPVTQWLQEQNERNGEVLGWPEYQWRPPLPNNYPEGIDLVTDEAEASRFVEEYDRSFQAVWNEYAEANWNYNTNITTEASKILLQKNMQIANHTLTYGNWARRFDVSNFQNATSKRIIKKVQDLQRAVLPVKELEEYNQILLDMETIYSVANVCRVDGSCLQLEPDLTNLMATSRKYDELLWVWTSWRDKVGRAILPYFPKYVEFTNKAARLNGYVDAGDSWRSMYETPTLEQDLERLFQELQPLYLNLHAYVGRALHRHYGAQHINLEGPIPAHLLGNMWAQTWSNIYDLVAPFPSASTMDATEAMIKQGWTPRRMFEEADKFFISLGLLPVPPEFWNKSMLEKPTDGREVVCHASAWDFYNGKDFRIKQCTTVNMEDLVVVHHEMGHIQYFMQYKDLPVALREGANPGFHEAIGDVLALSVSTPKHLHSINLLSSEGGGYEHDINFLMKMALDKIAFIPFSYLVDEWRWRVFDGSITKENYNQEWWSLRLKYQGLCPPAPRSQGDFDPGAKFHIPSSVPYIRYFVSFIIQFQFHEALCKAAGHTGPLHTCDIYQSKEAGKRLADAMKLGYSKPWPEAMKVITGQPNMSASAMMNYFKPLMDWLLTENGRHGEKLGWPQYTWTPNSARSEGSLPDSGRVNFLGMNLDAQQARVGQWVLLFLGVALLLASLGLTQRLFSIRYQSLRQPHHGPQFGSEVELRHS
Experimental: The activity of the pyrazolopyridazine derivatives of formula I in inhibiting angiotensin converting enzyme in vitro can be determined by the following test.
The method used is based on the method of Cushman and Cheung (Biochem. Pharmacol., 20, 1637-1648) incorporating the modifications introduced by Hayakari et al. (Anal. Biochem., 84, 361-369). The substrate (hippuryl-histidyl-leucine, 2 mM) is incubated with angiotensin converting enzyme, extracted from rabbit lung, in the presence or absence of various concentrations of test substance in potassium phosphate buffer (pH 8.3; 100 mM) containing sodium chloride (300 mM) for 25 minutes at 37° C. (total […] 500 μl). The reaction is terminated by the addition of 3 ml of potassium phosphate buffer (pH 8.3; 200 mM) at 0° C. 2,4,6-Trichloro-s-triazine (3%) in 1.5 ml of dioxane is added and the mixture is agitated until the yellow chromophore has developed fully. The samples are then centrifuged to remove any precipitate which has formed. The yellow chromophore formed by the reaction of the 2,4,6-trichloro-s-triazine with free hippuric acid is measured spectrophotometrically at 382 nm. IC50 values are defined as the concentration of test substance which reduces by 50% the cleavage of hippurly-histidyl-leucine by angiotensin converting enzyme under the aforementioned conditions.

SMILES	IC50 [nM]
CCC1(CCS)C(=O)N2CC=CC(C(=O)O)N2C1=O (stereo not drawn) [Compound C, 2-Ethyl-2,3,5,8-tetrahydro-2-(2-mercaptoethyl)-1,3-dioxo-1H-pyrazolo-[1,2-a]pyridazine-5-carboxylic acid]	43
CC1(CCS)C(=O)N2CCCC(C(=O)O)N2C1=O (stereo not drawn) [Compound A, Hexahydro-2-(2-mercaptoethyl)-2-methyl-1,3-dioxo-1H-pyrazolo[1,2-a]pyridazine-5-carboxylic acid]	100
CC1(CCS)CN2CCCC(C(=O)O)N2C1=O (stereo not drawn) [Compound B, Hexahydro-2-(2-mercaptoethyl)-2-methyl-3-oxo-1H-pyrazolo[1,2-a]pyridazine-5-carboxylic acid]	100
